Measured values from patent US10329307B2, “Heterocyclic compounds as inhibitors of platelet aggregation” (UNIVERSITE DE MONTREAL, priority 2015, dated 2019).

Target: PAR4 (Homo sapiens (Human), UniProt Q96RI0)
Assay: FLIPR assay in PAR4-expressing HEK293 cells (PAR4 antagonist activity)
Format: cell-based
Settings: H-Ala-Phe(4-F)-Pro-Gly-Trp-Leu-Val-Lys-Asn-Gly-NH2-induced intracellular calcium mobilization, 11-point curves
Text: The FLIPR assay is an exemplary in vitro assay for measuring the activity of the PAR4 antagonists of the present invention. In this assay, intracellular calcium mobilization is induced in PAR4 expressing cells by a PAR4 agonist and calcium mobilization is monitored. See, e.g., Example A.
HEK293 cells stably expressing PAR4 were generated by a standard method of transfection of human […] cDNA expression vector or by RAGE technology from Athersys Inc. (Cleveland, Ohio) and selected based on PAR4 protein expression of mRNA expression. […] These cells express endogenous PAR1 and can elicit calcium signal upon stimulation with PAR1 agonist peptide. Cells were grown in Dulbecco's Modified Eagle's Medium (DMEM) (Invitrogen, Carlsbad, Calif.), 10% FBS, 1% PSG, 3 μg/ml puromycin and 25 nM Methotrexate) at 37° C. with 5% CO2.
FLIPR-based calcium mobilization assay in HEK293 cells was used to measure PAR4 antagonism, agonism, and selectivity against PAR1. […] Counter screens for agonist activity and PAR1 antagonist activity were also performed. Briefly, PAR1/PAR4-expressing HEK293 cells were grown in DMEM (Life Technology, Grand Island, N.Y.) containing 10% heat-inactivated FBS, 1% Penicillin-Streptomycin, 10 μg/mL blasticidin, and 100 μg/mL Zeocin at 37° C. with 5% CO2. Cells were plated overnight prior to the experiment in a black 384-well Purecoat Amine clear bottom plate (Becton Dickinson Biosciences, San Jose, Calif.) at 10,000 cells/well in 30 μL growth medium and incubated in a humidified chamber at 37° C. with 5% CO2 overnight. Prior to compound addition, the cell medium was replaced with 40 μL of 1× calcium and magnesium-containing Hank's Balanced Saline Solution (HBSS) (with 20 mM HEPES) and 1:1000 diluted fluorescent calcium indicator (Codex Biosolutions, Gaithersburg, Md.). After a 30 minute incubation period at 37° C. and a further 30 minute incubation and equilibration period at room temperature, 20 μL test compound (diluted in 1×HBSS buffer) was added at various concentrations at 0.17% dimethyl sulfoxide (DMSO) final concentration. Changes in fluorescence intensity were measured using a Functional Drug Screening System (FDSS, Hamamatsu, Japan) to determine agonist activities. The cells were then incubated for 30 minutes at room temperature followed by addition of 20 μL of agonist peptide for antagonist activity measurement. […] Compound potency was derived from 11-point concentration-response curves.
As indicated above, the FLIPR assay, an in vitro assay, measures the PAR4 antagonist activity of compounds tested as described in Example A.

Sequence of PAR4 (Q96RI0 18-385): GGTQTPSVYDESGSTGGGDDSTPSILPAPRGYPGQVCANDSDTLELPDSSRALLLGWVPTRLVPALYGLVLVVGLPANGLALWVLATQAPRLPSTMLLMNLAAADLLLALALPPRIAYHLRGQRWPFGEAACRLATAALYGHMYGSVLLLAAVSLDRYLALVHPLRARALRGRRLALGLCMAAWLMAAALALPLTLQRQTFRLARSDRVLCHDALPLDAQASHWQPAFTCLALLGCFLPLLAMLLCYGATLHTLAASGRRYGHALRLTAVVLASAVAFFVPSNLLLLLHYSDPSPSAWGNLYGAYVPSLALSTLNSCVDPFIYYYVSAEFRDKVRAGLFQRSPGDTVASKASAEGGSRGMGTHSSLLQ

SMILES	IC50 [nM]
COc1cc(OCC2CCCCN2c2ccc(Cl)cc2)c2cc(-c3cn4nc(OC)sc4n3)oc2c1 (single isomer, unassigned) [Example 56]	920
COc1cc(OCC2CCCN(c3ccc(Cl)cn3)C2)c2cc(-c3cn4nc(OC)sc4n3)oc2c1 (single isomer, unassigned) [Example 65]	1000
COc1cc(OC[C@H]2CCCN2c2ccc(C#N)cc2)c2cc(-c3cn4nc(OC)sc4n3)oc2c1 [Example 1, (R)-4-(2-(((6-methoxy-2-(2-methoxyimidazo[2,1-b][1,3,4]thiadiazol-6-yl)benzofuran-4-yl)oxy)methyl)pyrrolidin-1-yl)benzonitrile]	420
COc1cc(OC[C@H]2CCCN2C2CCOCC2)c2cc(-c3cn4nc(OC)sc4n3)oc2c1 [Example 2, (R)-2-methoxy-6-(6-methoxy-4-((1-(tetrahydro-2H-pyran-4-yl)pyrrolidin-2-yl)methoxy)benzofuran-2-yl)imidazo[2,1-b][1,3,4]thiadiazole]	9400
COc1ccc(N2CCN(C(=O)OC(C)(C)C)CC2COc2cc(OC)cc3oc(-c4cn5nc(C)ccc5n4)cc23)cc1 (stereo not shown) [Example 3, tert-butyl 3-(((6-methoxy-2-(6-methylimidazo[1,2-b]pyridazin-2-yl)benzofuran-4-yl)oxy)methyl)-4-(4-methoxyphenyl)piperazine-1-carboxylate]	1200
COc1ccc(N2CCNCC2COc2cc(OC)cc3oc(-c4cn5nc(C)ccc5n4)cc23)cc1 (stereo not shown) [Example 4, 2-(6-methoxy-4-((1-(4-methoxyphenyl)piperazin-2-yl)methoxy)benzofuran-2-yl)-6-methylimidazo[1,2-b]pyridazine]	460000
COc1ccc(N2CCN(C(=O)c3ccccc3)CC2COc2cc(OC)cc3oc(-c4cn5nc(C)ccc5n4)cc23)cc1 (stereo not shown) [Example 5, (3-(((6-methoxy-2-(6-methylimidazo[1,2-b]pyridazin-2-yl)benzofuran-4-yl)oxy)methyl)-4-(4-methoxyphenyl)piperazin-1-yl)(phenyl)methanone]	24000
COc1ccc(N2CCN(C(=O)C3CC3)CC2COc2cc(OC)cc3oc(-c4cn5nc(C)ccc5n4)cc23)cc1 (stereo not shown) [Example 6, cyclopropyl(3-(((6-methoxy-2-(6-methylimidazo[1,2-b]pyridazin-2-yl)benzofuran-4-yl)oxy)methyl)-4-(4-methoxyphenyl)piperazin-1-yl)methanone]	15000
COc1ccc(N2CCN(CC3CC3)CC2COc2cc(OC)cc3oc(-c4cn5nc(C)ccc5n4)cc23)cc1 (stereo not shown) [Example 7, 2-(4-((4-(cyclopropylmethyl)-1-(4-methoxyphenyl)piperazin-2-yl)methoxy)-6-methoxybenzofuran-2-yl)-6-methylimidazo[1,2-b]pyridazine]	16000
COc1cc(OCC2CCCN(S(=O)(=O)c3ccc(C)cc3)C2)c2cc(-c3cn4nc(OC)sc4n3)oc2c1 (stereo not shown) [Example 8, 2-methoxy-6-(6-methoxy-4-((1-tosylpiperidin-3-yl)methoxy)benzofuran-2-yl)imidazo[2,1-b][1,3,4]thiadiazole]	1400
COc1cc(OC[C@H]2CCCN2c2ccc(Cl)cc2)c2cc(-c3cn4nc(OC)sc4n3)oc2c1 [Example 9]	950
COc1ccc(N2CCC[C@@H]2COc2cc(OC)cc3oc(-c4cn5nc(OC)sc5n4)cc23)cc1 [Example 10]	390
COc1cc(OC[C@H]2CCCN2c2ccc(F)cc2)c2cc(-c3cn4nc(OC)sc4n3)oc2c1 [Example 11]	740
COc1cc(OC[C@H]2CCCN2c2ccc3c(c2)OCO3)c2cc(-c3cn4nc(OC)sc4n3)oc2c1 [Example 12]	420
CCOC(=O)c1ccc(N2CCC[C@@H]2COc2cc(OC)cc3oc(-c4cn5nc(OC)sc5n4)cc23)cc1 [Example 13]	550
COc1cc(OC[C@H]2CCC(=O)N2c2ccc(F)cc2)c2cc(-c3cn4nc(OC)sc4n3)oc2c1 [Example 14]	12000
COc1cc(OC[C@@H]2CCCN2c2ccc(Cl)cc2)c2cc(-c3cn4nc(OC)sc4n3)oc2c1 [Example 15]	1300
COc1cc(OC[C@@H]2CCCN2c2ccc(C#N)cc2)c2cc(-c3cn4nc(OC)sc4n3)oc2c1 [Example 16]	500
COc1ccc(N2CCC[C@H]2COc2cc(OC)cc3oc(-c4cn5nc(OC)sc5n4)cc23)cc1 [Example 17]	290
COc1cc(OC[C@@H]2CCCN2c2ccc(F)cc2)c2cc(-c3cn4nc(OC)sc4n3)oc2c1 [Example 18]	470
COc1cccc(N2CCC[C@H]2COc2cc(OC)cc3oc(-c4cn5nc(OC)sc5n4)cc23)c1 [Example 19]	460
COc1ccc(N2CCC[C@H]2COc2cc(OC)cc3oc(-c4cn5nc(OC)sc5n4)cc23)nc1 [Example 20]	710
COc1cc(OC[C@@H]2CCCN2c2ccc3c(c2)OCO3)c2cc(-c3cn4nc(OC)sc4n3)oc2c1 [Example 21]	540
COc1cc(OC[C@@H]2CCCN2c2ccc(C(F)(F)F)cc2)c2cc(-c3cn4nc(OC)sc4n3)oc2c1 [Example 22]	440
COc1cc(OC[C@@H]2CCCN2c2ccc(OC(F)(F)F)cc2)c2cc(-c3cn4nc(OC)sc4n3)oc2c1 [Example 23]	600

SMILES	IC50 [nM]
COc1cc(OC[C@@H]2CCCN2c2ccc(C)cc2)c2cc(-c3cn4nc(OC)sc4n3)oc2c1 [Example 24]	950
COc1cc(OC[C@@H]2CCN(c3ccc(Cl)cc3)C2)c2cc(-c3cn4nc(OC)sc4n3)oc2c1 [Example 25]	790
COc1ccc(N2CC[C@@H](COc3cc(OC)cc4oc(-c5cn6nc(OC)sc6n5)cc34)C2)cc1 [Example 26]	1400
COc1cc(OCC2CN(c3ccc(F)cc3)C2)c2cc(-c3cn4nc(OC)sc4n3)oc2c1 [Example 27]	2300
COc1cc(OC[C@@H]2CCCN(c3ccc(C#N)cc3)C2)c2cc(-c3cn4nc(OC)sc4n3)oc2c1 [Example 28]	1800
CCOC(=O)c1ccc(N2CCC[C@@H](COc3cc(OC)cc4oc(-c5cn6nc(OC)sc6n5)cc34)C2)cc1 [Example 29]	950
COc1cc(OC[C@H]2CCCN(c3ccc(C#N)cc3)C2)c2cc(-c3cn4nc(OC)sc4n3)oc2c1 [Example 30]	860
CCOC(=O)c1ccc(N2CCC[C@H](COc3cc(OC)cc4oc(-c5cn6nc(OC)sc6n5)cc34)C2)cc1 [Example 31]	890
COc1ccc(N2CCCC(COc3cc(OC)cc4oc(-c5cn6nc(OC)sc6n5)cc34)C2)nc1 (stereo not shown) [Example 32]	2800
COc1cc(OCC2CCCN(c3ccc(Cl)cc3)C2)c2cc(-c3cn4nc(OC)sc4n3)oc2c1 (stereo not shown) [Example 33]	440
COc1cc(OC[C@@H]2CCCN(c3ccc(Cl)cc3)C2)c2cc(-c3cn4nc(OC)sc4n3)oc2c1 [Example 34]	700
COc1cc(OC[C@H]2CCCN(c3ccc(Cl)cc3)C2)c2cc(-c3cn4nc(OC)sc4n3)oc2c1 [Example 35]	840
COc1ccc(N2CCCC(COc3cc(OC)cc4oc(-c5cn6nc(OC)sc6n5)cc34)C2)cc1 (stereo not shown) [Example 36]	750
COc1cc(OCC2CCCN(c3ncc(F)cc3F)C2)c2cc(-c3cn4nc(OC)sc4n3)oc2c1 (stereo not shown) [Example 37]	560
COc1cc(OCC2CCCN(c3ccc4c(c3)OCO4)C2)c2cc(-c3cn4nc(OC)sc4n3)oc2c1 (stereo not shown) [Example 38]	540
COc1cc(OCC2CCCN(c3ccc(C(F)(F)F)cc3)C2)c2cc(-c3cn4nc(OC)sc4n3)oc2c1 (stereo not shown) [Example 39]	510
COc1cc(OCC2CCCN(c3ccc(C#N)cc3)C2)c2cc(-c3cn4nc(OC)sc4n3)oc2c1 (stereo not shown) [Example 40]	1300
CCOC(=O)c1ccc(N2CCCC(COc3cc(OC)cc4oc(-c5cn6nc(OC)sc6n5)cc34)C2)cc1 (stereo not shown) [Example 41]	2100
COc1ccc(N2CCCC(COc3cc(OC)cc4oc(-c5cn6nc(OC)sc6n5)cc34)C2)c(OC)c1 (stereo not shown) [Example 42]	1100
COc1cc(OCC2CCCN(c3cc(C#N)ccn3)C2)c2cc(-c3cn4nc(OC)sc4n3)oc2c1 (stereo not shown) [Example 43]	480
COc1cc(OC[C@@H]2CCCN(c3ccc(C#N)cn3)C2)c2cc(-c3cn4nc(OC)sc4n3)oc2c1 [Example 44]	750
CCOC(=O)c1ccc(N2CCCCC2COc2cc(OC)cc3oc(-c4cn5nc(OC)sc5n4)cc23)cc1 (stereo not shown) [Example 45]	370
COc1cc(OCC2CCCCN2c2ccc(C#N)cc2)c2cc(-c3cn4nc(OC)sc4n3)oc2c1 (stereo not shown) [Example 46]	240
CCOC(=O)c1ccc(N2CCC(COc3cc(OC)cc4oc(-c5cn6nc(OC)sc6n5)cc34)CC2)cc1 [Example 47]	1000
